Patent US4672068A, “Antihypertensive 1,4-dihydropyridines having a conjugated ester” (Fujirebio Kabushiki Kaisha, priority 1984, dated 1987)

Experiments:
[1] = test system: Male spontaneously hypertensive rats (SHR), arterial blood pressure; assay: Depressor response after intraduodenal administration (1 mg/kg), Table 2; format: in vivo, rat; conditions: for Half-life: '120<' means greater than 120
Method: Arterial blood pressure was measured through the catherized artery with a pressure transducer (MPU-0.5, manufactured by Nihon Kohden Kabushiki Kaisha). The catheter was inserted into the abdominal aorta via the median coccygcal artery of SHR under light ether anesthesia. The recordings were made on a rectigraph (manufactured by Sanei Sokki Kabushiki Kaisha). The 1,4-dihydropyridine derivatives prepared in the foregoing examples were administered with catheter which was inserted previously into the caudal vein or duodenum at least two hours after the operation. SHR were restrained with wire mesh cage immediately after the operation.

[2] = test system: Male SHR, systolic blood pressure; assay: Systolic blood pressure by tail cuff method, oral administration (3 mg/kg), Table 4; format: in vivo, rat; conditions: conscious SHR; for Duration: '24<' means greater than 24
Method: Systolic blood pressure was measured by the tail cuff method with electrophygmomanometer (PE-300, made by Narco Co.). Each derivative (3 mg/kg) was administered orally, suspended in 5% gum arabic solution.

[3] = test system: Male spontaneously hypertensive rats (SHR), arterial blood pressure; assay: Depressor response after intravenous administration (30 μg/kg), Table 1; format: in vivo, rat; conditions: for Duration: '90<' means greater than 90
Procedure, shortened: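 Conscious restrained SHR with mean arterial pressure above 140 mmHg; pressure recorded via abdominal aortic catheter and transducer. Dosing was at least 2 h after surgery, through a caudal vein catheter. Compound was given in 1.5% PVP/ethanol diluted with 0.9% saline.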

[4] = test system: rat (SHR), blood pressure and heart rate; assay: Depressor response of trans- and cis-forms, dose-response intravenous, Tables 5 and 6; format: in vivo
Method: Male spontaneously hypertensive rats (SHR) which had mean arterial blood pressures higher than 140 mmHg were used for the experiments. Arterial blood pressure was measured through the catherized artery with a pressure transducer (MPU-0.5, manufactured by Nihon Kohden Kabushiki Kaisha). The catheter was inserted into the abdominal aorta via the median coccygcal artery of SHR under light ether anesthesia. The recordings were made on a rectigraph (manufactured by Sanei Sokki Kabushiki Kaisha). The 1,4-dihydropyridine derivatives prepared in the foregoing examples were administered with catheter which was inserted previously into the caudal vein or duodenum at least two hours after the operation. SHR were restrained with wire mesh cage immediately after the operation. […]

Row | Compound | The time to reach the lowest BP [1] [min] | ΔBP (Maximum depressor response) [1] [mmHg] | Half-life [1] [h] | ΔBP After 1 hour [2] [mmHg] | ΔBP After 3 hours [2] [mmHg] | Duration [2] [h] | The time to reach the lowest BP [3] [min] | ΔBP (Maximum depressor response) [3] [mmHg] | Duration [3] [min] | further results
1 | COC(=O)C1=C(C)NC(C)=C(C(=O)OCC=CC=Cc2ccccc2)C1c1cccc([N+](=O)[O-])c1 (stereo not shown) [Example 16, 5-phenyl-2,4-pentadienyl methyl 4-(3-nitrophenyl)-2,6-dimethyl-1,4-dihydropyridine-3,5-dicarboxylate] | 50 | 45 | > 2 | -55 | -60 | > 24 | – | – | – | –
2 | COC(=O)C1=C(C)NC(C)=C(C(=O)OC/C=C\c2ccccc2)C1c1cccc([N+](=O)[O-])c1 (stereo not drawn) [Example 56, Methyl (Z)-3-phenyl-2-propenyl 4-(3-nitrophenyl)-2,6-dimethyl-1,4-dihydropyridine-3,5-dicarboxylate (cis)] | – | – | – | – | – | – | 1.3 | 40.3 | – | Depressure Response MaxΔBP ([4]; 10 μg/kg i.v.): 16.0 mmHg; Depressure Response Peak ([4]; 10 μg/kg i.v.): 1.2 min; MaxΔHR (Heart rates) ([4]; 10 μg/kg i.v.): 30.0 beats/min; T 1/2 (Halflife) ([4]; 10 μg/kg i.v.): 0.105 h; Depressure Response MaxΔBP ([4]; 30 μg/kg i.v.): 40.3 mmHg; Depressure Response Peak ([4]; 30 μg/kg i.v.): 1.3 min; MaxΔHR (Heart rates) ([4]; 30 μg/kg i.v.): 80.0 beats/min; T 1/2 (Halflife) ([4]; 30 μg/kg i.v.): 0.198 h; Depressure Response MaxΔBP ([4]; 100 μg/kg i.v.): 67.5 mmHg; Depressure Response Peak ([4]; 100 μg/kg i.v.): 1.8 min; MaxΔHR (Heart rates) ([4]; 100 μg/kg i.v.): 87.5 beats/min; T 1/2 (Halflife) ([4]; 100 μg/kg i.v.): 0.533 h; ED40 ([4]; Rattus norvegicus, intravenous, from regression line): 0.0299 mg/kg
3 | COC(=O)C1=C(C)NC(C)=C(C(=O)OCCC=Cc2ccc3ccccc3c2)C1c1cccc([N+](=O)[O-])c1 (stereo not drawn) [Example 12, 4-β-naphthyl-3-butenyl methyl 4-(3-nitrophenyl)-2,6-dimethyl-1,4-dihydropyridine-3,5-dicarboxylate] | – | – | – | -30 | -55 | > 24 | – | – | – | –
4 | COC(=O)C1=C(C)NC(C)=C(C(=O)OC(C)C=Cc2ccco2)C1c1cccc([N+](=O)[O-])c1 (stereo not shown) [Example 33, 1-methyl-3-furyl-3-propenyl methyl 4-(3-nitrophenyl)-2,6-dimethyl-1,4-dihydropyridine-3,5-dicarboxylate] | 22 | 100 | > 4 | – | – | – | 10.0 | 85 | > 240 | –
5 | COC(=O)C1=C(C)NC(C)=C(C(=O)OCCCC=Cc2ccccc2)C1c1cccc([N+](=O)[O-])c1 (stereo not shown) [Example 50, Methyl 5-phenyl-4-pentenyl 4-(3-nitrophenyl)-2,6-dimethyl-1,4-dihydropyridine-3,5-dicarboxylate] | – | – | – | -75 | – | – | 2 | 64 | > 90 | –
6 | CC1=C(C(=O)OCC=CC=Cc2ccccc2)C(c2cccc([N+](=O)[O-])c2)C(C(=O)OC(C)C)=C(C)N1 (stereo not shown) [Example 61, Isopropyl 5-phenyl-2,4-pentadienyl 4-(3-nitrophenyl)-2,6-dimethyl-1,4-dihydropyridine-3,5-dicarboxylate] | – | – | – | -40 | -100 | – | 7.0 | 85 | > 90 | –
7 | COC(=O)C1=C(C)NC(C)=C(C(=O)OCCC=Cc2ccccc2)C1c1cccc([N+](=O)[O-])c1 (stereo not shown) [Example 4, 4-phenyl-3-butenyl methyl 4-(3-nitrophenyl)-2,6-dimethyl-1,4-dihydropyridine-3,5-dicarboxylate] | 105 | 20 | > 2.83 | – | – | – | 1.3 | 63.3 | > 90 | –
8 | CC=CC=CCOC(=O)C1=C(C)NC(C)=C(C(=O)OC)C1c1cccc([N+](=O)[O-])c1 (stereo not shown) [Example 66, methyl 2,4-hexadienyl 4-(3-nitrophenyl)-2,6-dimethyl-1,4-dihydropyridine-3,5-dicarboxylate] | 35 | 65 | > 2 | – | – | – | 1.4 | 71.7 | > 90 | halflife (number in parentheses in Duration column) [3]: 0.722 h
9 | 1-methyl-3-thienyl-2-propenyl methyl 4-(3-nitrophenyl)-2,6-dimethyl-1,4-dihydropyridine-3,5-dicarboxylate [Example 36] | 130 | 59 | > 4 | – | – | – | 25.0 | 69 | > 220 | –
10 | CCOC(=O)C1=C(C)NC(C)=C(C(=O)OCC=Cc2ccccc2)C1c1cccc([N+](=O)[O-])c1 (stereo not shown) [Example 15, Cinnamyl ethyl 4-(3-nitrophenyl)-2,6-dimethyl-1,4-dihydropyridine-3,5-dicarboxylate] | 75 | 45 | > 2 | – | -35 | 7 to 24 | – | – | – | –
11 | COC(=O)C1=C(C)NC(C)=C(C(=O)OC)C1c1ccccc1[N+](=O)[O-] [A, 4-(o-nitrophenyl)-2,6-dimethyl-1,4-dihydropyridine-3,5-dicarboxylic acid dimethyl ester, reference compound] | 6.0 | 48.3 | – | -45 | -22.0 | < 7 | 0.9 | 18.7 | 35.6 ± 6.5 | –
12 | CC1=C(C(=O)OCC=Cc2ccccc2)C(c2cccc([N+](=O)[O-])c2)C(C(=O)OCCOc2ccccc2)=C(C)N1 (stereo not shown) [Example 44, Cinnamyl 2-phenoxyethyl 4-(3-nitrophenyl)-2,6-dimethyl-1,4-dihydropyridine-3,5-dicarboxylate] | – | – | – | -30 | -70 | 7 to 24 | 7 | 43 | – | halflife (number in parentheses in Duration column) [3]: 0.75 h
13 | COC(=O)C1=C(C)NC(C)=C(C(=O)OC(C=Cc2ccccc2)c2ccccc2)C1c1cccc([N+](=O)[O-])c1 (stereo not shown) [Example 27, 1,3-diphenyl-2-propenyl methyl 4-(3-nitrophenyl)-2,6-dimethyl-1,4-dihydropyridine-3,5-dicarboxylate] | 170 | 82 | > 4 | -130 | -113 | – | 56 | 45 | > 240 | –
